From patent publication US10703746B2, “Mutant IDH1 inhibitors useful for treating cancer” (THE UNITED STATES OF AMERICA, AS REPRESENTED BY THE …, priority 2014, dated 2020) come the findings set out here.

Where only a bound is given, the exact number is not on record here.

One assay concerns the target IDH1 R132H (Homo sapiens, UniProt O75874, R132H). Nature of the assay: IDH1 R132H enzymatic assay (NADPH depletion coupled to diaphorase/resazurin). It counts as biochemical. Background: Resazurin is reduced to fluorescent resorufin, in cell work by metabolically active cells.
In a further assay the target is IDH1 R132C (Homo sapiens, UniProt O75874, R132C). Nature of the assay: IDH1 R132C enzymatic assay (NADPH depletion coupled to diaphorase/resazurin). The assay is classed as biochemical. The essentials:
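NADPH depletion, read via diaphorase/resazurin coupling, after adding substrate at 0.6 mM α-KG and 0.012 mM NADPH. Beforehand, 0.00032 mg/mL enzyme sat with compound 30 min at room temperature in pH 6.5 potassium phosphate buffer with MgCl2, glycerol and BSA.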

The mark [1] stands for this setting: IDH1 R132H enzymatic inhibition, IC50 class.
Setting [2] is: IDH1 R132C enzymatic inhibition, IC50 class.
Setting [3] is: enzymatic inhibition, IDH1 R132H.
Where [4] appears, read: enzymatic inhibition, IDH1 R132C.

IDH1 R132H, sequence (O75874 whole entry R132H): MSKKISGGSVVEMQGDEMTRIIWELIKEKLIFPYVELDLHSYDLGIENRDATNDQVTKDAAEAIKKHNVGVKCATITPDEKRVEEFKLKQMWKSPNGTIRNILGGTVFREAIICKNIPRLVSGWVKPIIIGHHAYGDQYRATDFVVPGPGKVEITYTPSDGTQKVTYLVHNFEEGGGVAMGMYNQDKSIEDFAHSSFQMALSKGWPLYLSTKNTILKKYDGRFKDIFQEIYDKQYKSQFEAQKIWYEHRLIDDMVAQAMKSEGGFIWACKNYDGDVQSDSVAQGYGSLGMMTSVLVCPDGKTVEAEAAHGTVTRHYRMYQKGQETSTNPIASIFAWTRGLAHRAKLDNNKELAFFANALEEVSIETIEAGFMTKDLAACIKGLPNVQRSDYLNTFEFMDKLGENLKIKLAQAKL
IDH1 R132C, sequence (O75874 whole entry R132C): as the sequence (O75874 whole entry R132H) above, with H132C counted along it

As usually defined, the IC50 is the concentration that gives 50% inhibition. A high value points to a need for much substance. For the compound `CCc1cccc(CC)c1-n1c(CC(C)C)c(C(=O)N2CCNCC2)cc(-c2nc(-c3ccc(OC(C)C)cc3)c(C)s2)c1=O` [Compound 257], the IC50 against IDH1 R132H (setting [1]) was 300 to 1000 nM; against IDH1 R132C (setting [2]), less than 300 nM.
Consider `CC(C)=Cc1c(C(=O)N2CCNCC2)cc(-c2nc(-c3ccc(Cl)cc3)cs2)c(=O)n1-c1cc(F)ccc1OC(C)C` [Compound 530], for which the 50% inhibitory concentration (IC50) against IDH1 R132H (setting [3]) is less than 300 nM; against IDH1 R132C (setting [4]) it was 300 to 1000 nM.
Take `CCc1cccc(CC)c1-n1c(CC(C)C)c(C(=O)N2CCNCC2)cc(-c2nc(-c3ccc(Cl)cc3)c(Br)s2)c1=O` [Compound 601]: the IC50 on IDH1 R132H (setting [3]) is 300 to 1000 nM; on IDH1 R132C (setting [4]), less than 300 nM.
In the case of `CCc1ccc(F)cc1-n1c(C=C(C)C)c(C(=O)N2CCNCC2)cc(-c2nc(-c3ccc(Cl)cc3)cs2)c1=O` [Compound 352], the IC50 against IDH1 R132H (setting [1]) and on IDH1 R132C (setting [2]) was less than 300 nM in each case.
For `CCc1cccc(CC)c1-n1c(C)c(C(=O)NC2CCCCC2)cc(-c2nc(-c3ccc(Cl)cc3)cs2)c1=O` [Compound 116], the IC50 is greater than 20000 nM on IDH1 R132H (setting [1]) and 1000 to 5000 nM against IDH1 R132C (setting [2]).
For the compound `CN1CCN(Cc2ccccc2-n2c3c(cc(-c4nc(-c5ccc(Cl)cc5)cs4)c2=O)C(=O)CC(C)(C)C3)CC1` [Compound 547], the IC50 at IDH1 R132H (setting [3]) and on IDH1 R132C (setting [4]) was 5000 to 20000 nM in each case.
Regarding `CC1(C)CC(=O)c2cc(-c3nc(-c4ccc(Cl)cc4)cs3)c(=O)n(-c3cn[nH]c3)c2C1` [Compound 177], the IC50 against IDH1 R132H (setting [1]) and at IDH1 R132C (setting [2]) was 5000 to 20000 nM in each case.
With `CCc1cccc(CC)c1-n1c(CC(C)C)c(C(=O)N2CCNC(C(N)=O)C2)cc(-c2nc(-c3ccc(Cl)cc3)cs2)c1=O` (stereo not shown) [Compound 48], the IC50 is 300 to 1000 nM on IDH1 R132H (setting [1]) and less than 300 nM at IDH1 R132C (setting [2]).
For `CCOc1cccc(Cl)c1-n1c(C=C(C)C)c(C(=O)N2CCNCC2)cc(-c2nc(-c3ccc(Cl)cc3)cs2)c1=O` [Compound 374] the same measures were less than 300 nM and less than 300 nM.
Turning to `CCc1cccc(CC)c1-n1c(C)c(C(=O)N[C@H](C)CO)cc(-c2nc(-c3ccc(Cl)cc3)cs2)c1=O` [Compound 176], the 50% inhibitory concentration (IC50) against IDH1 R132H (setting [1]) and at IDH1 R132C (setting [2]) was 1000 to 5000 nM throughout.
On to `CCc1cccc(CC)c1-n1c(C=C(C)C)c(C(=O)N2CCNC(C(=O)O)C2)cc(-c2nc(-c3ccc(Cl)cc3)cs2)c1=O` (stereo not shown) [Compound 591], for which the IC50 at IDH1 R132H (setting [3]) and at IDH1 R132C (setting [4]) was less than 300 nM in each case.
Turning to `COc1ccc(-n2c3c(cc(-c4nc(-c5ccc(Cl)cc5)cs4)c2=O)C(=O)CC(C)(C)C3)c(OC)c1` [Compound 597], the IC50 against IDH1 R132H (setting [3]) and against IDH1 R132C (setting [4]) was greater than 20000 nM throughout.
In the case of `CC1(C)CC(=O)c2cc(-c3nc(-c4ccc(Cl)cc4)cs3)c(=O)n(-c3cscc3C(N)=O)c2C1` [Compound 429], the IC50 on IDH1 R132H (setting [3]) and against IDH1 R132C (setting [4]) was 5000 to 20000 nM each time.
Turning to `COc1ccc(C#N)cc1-n1c2c(cc(-c3nc(-c4ccc(Cl)cc4)cs3)c1=O)C(=O)CC(C)(C)C2` [Compound 509], the IC50 at IDH1 R132H (setting [3]) and on IDH1 R132C (setting [4]) was 1000 to 5000 nM in each case.
Regarding `CCc1cccc(CC)c1-n1c(CC(C)C)c(C(=O)N2CCCC(CO)C2)cc(-c2nc(-c3ccc(Cl)cc3)cs2)c1=O` (stereo not shown) [Compound 34], the half-inhibitory concentration (IC50) against IDH1 R132H (setting [1]) was in the range of 1000 to 5000 nM; against IDH1 R132C (setting [2]), 300 to 1000 nM.
With `CCc1cccc(CC)c1-n1c(CC(C)C)c(C(=O)NC2CCNCC2)cc(-c2nc(-c3ccc(Cl)cc3)cs2)c1=O` [Compound 263], the 50% inhibitory concentration (IC50) is 300 to 1000 nM against IDH1 R132H (setting [1]) and less than 300 nM against IDH1 R132C (setting [2]).
Turning to `CCc1cccc(CC)c1-n1c(CC(C)C)c(C(=O)N2CCNCC2)cc(-c2nc(-c3ccc(Cl)cc3OC)c(C)s2)c1=O` [Compound 573], the IC50 against IDH1 R132H (setting [3]) and on IDH1 R132C (setting [4]) was 300 to 1000 nM throughout.
As to `CCc1cccc(CC)c1-n1c(C)c(C(=O)Nc2ccccc2)cc(-c2nc(-c3ccc(Cl)cc3)cs2)c1=O` [Compound 180], the IC50 against IDH1 R132H (setting [1]) and against IDH1 R132C (setting [2]) was greater than 20000 nM throughout.
For `CN1CCN(Cc2ccc(-n3c4c(cc(-c5nc(-c6ccc(Cl)cc6)cs5)c3=O)C(=O)CCC4)cc2)CC1` [Compound 360], the IC50 on IDH1 R132H (setting [1]) and against IDH1 R132C (setting [2]) was greater than 20000 nM in each case.
Turning to `Cc1cc(-n2c3c(cc(-c4nc(-c5ccc(Cl)cc5)cs4)c2=O)C(=O)CC(C)(C)C3)n(C)n1` [Compound 72], the IC50 at IDH1 R132H (setting [1]) and at IDH1 R132C (setting [2]) was 1000 to 5000 nM in each case.
For `CCc1cccc(CC)c1-n1c(C=C(C)C)c(C(=O)N2CCNCC2C(C)C)cc(-c2nc(-c3ccc(Cl)cc3)cs2)c1=O` (stereo not shown) [Compound 332], the IC50 is 300 to 1000 nM against IDH1 R132H (setting [1]) and less than 300 nM against IDH1 R132C (setting [2]).
In the case of `CCc1cccc(CC)c1-n1c(C)c(C(=O)N2CCNCC2)cc(-c2nc(-c3ccc(Cl)cc3)cs2)c1=O` [Compound 300], the IC50 on IDH1 R132H (setting [1]) was less than 300 nM; at IDH1 R132C (setting [2]), 300 to 1000 nM.
For the compound `CCc1cccc(CC)c1-n1c2c(cc(-c3nc(-c4ccc(Cl)cc4)cs3)c1=O)C(=O)OC(C)(C)C2` [Compound 475], the IC50 against IDH1 R132H (setting [3]) and against IDH1 R132C (setting [4]) was 300 to 1000 nM in each case.
Consider `CCc1cccc(CC)c1-n1c(C)c(C(=O)N2CCC(C(=O)O)CC2)cc(-c2nc(-c3ccc(Cl)cc3)cs2)c1=O` [Compound 109], for which the results for the IC50 against IDH1 R132H (setting [1]) and against IDH1 R132C (setting [2]) were 1000 to 5000 nM and 5000 to 20000 nM, respectively.
With `CCc1cccc(CC)c1-n1c(C)c(C(=O)NC2CCOCC2)cc(-c2nc(-c3ccc(Cl)cc3)cs2)c1=O` [Compound 296], the IC50 against IDH1 R132H (setting [1]) and against IDH1 R132C (setting [2]) was 1000 to 5000 nM each time.
As to `CCOc1ncc(F)cc1-n1c(C=C(C)C)c(C(=O)N2CCNCC2)cc(-c2nc(-c3ccc(Cl)cc3)cs2)c1=O` [Compound 488], the IC50 at IDH1 R132H (setting [3]) and against IDH1 R132C (setting [4]) was less than 300 nM in each case.
Take `CC(C)=Cc1c(C(=O)N2CCNCC2)cc(-c2nc(-c3ccc(Cl)cc3)cs2)c(=O)n1-c1ccccc1Cl` [Compound 449]: the IC50 against IDH1 R132H (setting [3]) and against IDH1 R132C (setting [4]) was less than 300 nM in each case.
Turning to `CCOc1ncc(F)cc1-n1c(C=C(C)C)c(C(=O)N2CCNCC2)cc(-c2nc(-c3ccc(C(F)(F)F)cc3)cs2)c1=O` [Compound 568], the IC50 against IDH1 R132H (setting [3]) and against IDH1 R132C (setting [4]) was less than 300 nM in each case.
Turning to `CCc1cccc(CC)c1-n1c(C)c(C(=O)NCc2ccccc2)cc(-c2nc(-c3ccc(Cl)cc3)cs2)c1=O` [Compound 192], the IC50 against IDH1 R132H (setting [1]) is greater than 20000 nM; against IDH1 R132C (setting [2]) it was 1000 to 5000 nM.
With `CCc1cccc(CC)c1-n1c(C)c(C(=O)N(C)CCCNC)cc(-c2nc(-c3ccc(Cl)cc3)cs2)c1=O` [Compound 133], the figures for the IC50 against IDH1 R132H (setting [1]) and at IDH1 R132C (setting [2]) were 5000 to 20000 nM and 1000 to 5000 nM, respectively.
The matching figures for `CCc1cccc(CC)c1-n1c(C)c(C(=O)N2CCC(N)C2)cc(-c2nc(-c3ccc(Cl)cc3)cs2)c1=O` (stereo not shown) [Compound 245]: 1000 to 5000 nM and 1000 to 5000 nM.
For the compound `CCc1cccc(CC)c1-n1c(C=C(C)C)c(C(=O)N2CCNC(CO)C2)cc(-c2nc(-c3ccc(Cl)cc3)cs2)c1=O` (stereo not shown) [Compound 478], the IC50 against IDH1 R132H (setting [3]) and at IDH1 R132C (setting [4]) was less than 300 nM in each case.
Consider `CCc1cccc(CC)c1-n1c(C=C(C)C)c(C(=O)N2C(C)CNCC2C(=O)O)cc(-c2nc(-c3ccc(Cl)cc3)cs2)c1=O` (stereo not shown) [Compound 660], for which the IC50 at IDH1 R132H (setting [1]) and against IDH1 R132C (setting [2]) was less than 300 nM in each case.
Turning to `COc1ccc(OC)c(-n2c(C=C(C)C)c(C(=O)N3CCNCC3)cc(-c3nc(-c4ccc(Cl)cc4)cs3)c2=O)c1` [Compound 380], the IC50 against IDH1 R132H (setting [1]) and at IDH1 R132C (setting [2]) was less than 300 nM in each case.
In the case of `CCc1cccc(CC)c1-n1c(-c2ccccc2)c(C#N)cc(-c2nc(-c3ccc(Cl)cc3)cs2)c1=O` [Compound 170], the IC50 fell in the range of 5000 to 20000 nM against IDH1 R132H (setting [1]) and 1000 to 5000 nM against IDH1 R132C (setting [2]).
